Experimental data: PubChem BioAssay AID2060353 (Molecular Pharmacology Branch, DTP, NCI, 2025)

System: 521955-158-R2-J5-PDC spheroids with stroma, growth inhibition
Assay: Anticancer human tumor 521955-158-R2-J5-PDC patient-derived pancreatic carcinoma cell line growth inhibition [TAK]
Conditions: for IC50: curve of first compound; for viability, T/C: stronger effect = lower value; active = viability on the fitted dose curve at most 10% of control; inactive = the rest
Excerpt: Combinatorial screen of targeted agents with TAK-243 and ipatasertib in multi-cell type tumor spheroids
A high-throughput screen of multi-cell type tumor spheroids was designed to identify active combinations of targeted small molecules and TAK-243 or ipatasertib. Complex spheroids include a stromal component modeled by human endothelial cells (HUVEC) and fibroblasts modeled by human mesenchymal stem cells (MSCs). The concentration ranges selected for each drug and investigational agent were based upon clinically achievable concentrations if the clinical Cmax of the agent was known.
Compounds. The drugs and investigational agents: TAK-243 (785004), ipatasertib (767898), everolimus (733504), selumetinib (741078), bortezomib (756655), trametinib (758246), ixazomib (758254), vemurafenib (761431), dabrafenib (764134), sapanisertib (764658), alpelisib (765974), and copanlisib (816437), were obtained from the National Cancer Institute (NCI) Developmental Therapeutics Program Chemical Repository. The FDA-approved anticancer drug set is available from the NCI Developmental Therapeutics Program. […] The stock solutions were prepared in dimethyl sulfoxide (DMSO, Sigma-Aldrich, St. Louis, MO, cat. D2650) at 800-fold the tested concentration and stored at -70 degrees C prior to their use. All drugs and investigational agents were tested over a range starting from a high concentration at or near the clinical Cmax and decreasing in half-log increments. If the clinical Cmax for an agent had not been determined, the highest concentration tested was 10 microM.
NCI60 Cell Culture. NCI60 cell lines were obtained from the NCI Developmental Therapeutics Program Tumor Repository. For each lot of cells, the Repository performed Applied Biosystems AmpFLSTR Identifiler testing with PCR amplification to confirm consistency with the published Identifier STR profile for each cell line. Cells were kept in continuous culture for no more than 20 passages. The optimal seeding densities for each of the cell lines at each time point assessed were determined prior to performing the concentration response studies. Briefly, the NCI60 human tumor lines were grown as monolayers in RPMI 1640 medium supplemented with 10% FBS and 2 mmol/L L-glutamine.
An additional 2 lines were from the NCI60 cell line panel including melanomas, MALME-3M and SK-MEL-2. Pooled donor human umbilical vein endothelial cells (HUVEC, Lonza, cat. CC-2519) and human mesenchymal stem cells (hMSC, Lonza, cat. PT-2501) were purchased from Lonza (Walkersville, MD).
PDMR cell lines were grown in complete medium (DC medium): Dulbecco's modified Eagle's medium (DMEM)/F12 supplemented with 5% fetal bovine serum (FBS), 2 mM L-glutamine, 100 U/mL penicillin and 100 µg/ml streptomycin, 0.4 µg/ml hydrocortisone, 10 ng/ml epidermal growth factor (EGF) recombinant human protein, 24 µg/mL adenine, and 0.1 mg/mL primocin. During culture from frozen stock vials, PDMR cells were cultured in the same medium containing 10 µM Y-27632 (see Table 3). The PDCs were cultured in complete DMEM/F12 media without 10 microM Y-27632 dihydrochloride for at least two passages prior to the screen. The pooled donor HUVEC and hMSC were cultured in endothelial cell growth medium 2 (PromoCell, Heidelberg, Germany, cat. C-22011) and mesenchymal stem cell growth medium 2 (PromoCell, cat. C-28009), respectively. For all experiments, HUVEC and hMSC were used at passages </=5.
For the pre-screen, cell seeding densities were determined from a titration spanning the range from 5,000 to 313 cells per well. The mct-spheroids including 60% malignant cells, 25% HUVEC and 15% MSC dispensed as a mixture into U-bottom Ultra-Low Attachment 384-well plates (Corning, NY)
High-throughput Drug Combination Screening.
Prior to their inoculation into 384-well plates, malignant cells, HUVEC, and hMSC were removed from T flasks using TrypLE express (Thermo Fisher Scientific, cat. 12605036) and harvested by centrifugation for 5 min at 233 x g. […]

[1] = second compound 0.3 µM, first compound 0.00949 µM
[2] = second compound 0.3 µM, first compound 0.03 µM
[3] = second compound 0.949 µM, first compound 0.00949 µM
[4] = second compound 0.949 µM, first compound 0.03 µM
[5] = second compound 3 µM, first compound 0.00949 µM
[6] = second compound 3 µM, first compound 0.03 µM
[7] = second compound 9.49 µM, first compound 0.00949 µM
[8] = second compound 9.49 µM, first compound 0.03 µM
[9] = second compound 30 µM, first compound 0.00949 µM
[10] = second compound 30 µM, first compound 0.03 µM
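Also: spheroids exposed to drugs for seven days before readout.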

CC(=O)Nc1cccc(-n2c(=O)n(C3CC3)c(=O)c3c(Nc4ccc(I)cc4F)n(C)c(=O)c(C)c32)c1 + CC(C)NCC(C(=O)N1CCN(c2ncnc3c2C(C)CC3O)CC1)c1ccc(Cl)cc1
active: viability, T/C [4] 5.36% | viability, T/C [6] 4.27% | viability, T/C [8] 4.02% | viability, T/C (second compound 30 µM, first compound 0.003 µM) 8.52% | viability, T/C [9] 3.18% | viability, T/C [10] 0.96%
0.394 nM: IC50 (second compound 9.49 µM)
0.109 nM: IC50 (second compound 30 µM)
0.267 nM: IC50 (second compound 3 µM)
0.714 nM: IC50 (second compound 0.3 µM)
0.283 nM: IC50 (second compound 0.949 µM)
inactive: viability, T/C (second compound 0.3 µM, first compound 94.9 pM) 94.6% | viability, T/C (second compound 0.3 µM, first compound 0.0003 µM) 67.8% | viability, T/C (second compound 0.3 µM, first compound 0.000949 µM) 40.3% | viability, T/C (second compound 0.3 µM, first compound 0.003 µM) 33.8% | viability, T/C [1] 29.3% | viability, T/C [2] 17.7% | viability, T/C (second compound 0.949 µM, first compound 94.9 pM) 75.4% | viability, T/C (second compound 0.949 µM, first compound 0.0003 µM) 46.7% | viability, T/C (second compound 0.949 µM, first compound 0.000949 µM) 31.9% | viability, T/C (second compound 0.949 µM, first compound 0.003 µM) 19.5% | viability, T/C [3] 11.9% | viability, T/C (second compound 3 µM, first compound 94.9 pM) 62.6% | viability, T/C (second compound 3 µM, first compound 0.0003 µM) 46.9% | viability, T/C (second compound 3 µM, first compound 0.000949 µM) 37.6% | viability, T/C (second compound 3 µM, first compound 0.003 µM) 22.1% | viability, T/C [5] 12.8% | viability, T/C (second compound 9.49 µM, first compound 94.9 pM) 91.6% | viability, T/C (second compound 9.49 µM, first compound 0.0003 µM) 53.6% | viability, T/C (second compound 9.49 µM, first compound 0.000949 µM) 33.2% | viability, T/C (second compound 9.49 µM, first compound 0.003 µM) 20% | viability, T/C [7] 10.8% | viability, T/C (second compound 30 µM, first compound 94.9 pM) 51.5% | viability, T/C (second compound 30 µM, first compound 0.0003 µM) 38.6% | viability, T/C (second compound 30 µM, first compound 0.000949 µM) 18.3%

CC(C)CC(NC(=O)C(Cc1ccccc1)NC(=O)c1cnccn1)B(O)O (stereo not given) + CC(C)NCC(C(=O)N1CCN(c2ncnc3c2C(C)CC3O)CC1)c1ccc(Cl)cc1
5.95 nM: IC50 (second compound 9.49 µM)
active: viability, T/C (second compound 0.3 µM, first compound 0.01 µM) 7.88% | viability, T/C (second compound 0.949 µM, first compound 0.01 µM) 7.37% | viability, T/C (second compound 3 µM, first compound 0.01 µM) 7.09% | viability, T/C (second compound 9.49 µM, first compound 0.01 µM) 4.23% | viability, T/C (second compound 30 µM, first compound 0.01 µM) 1.83%
4.97 nM: IC50 (second compound 3 µM)
inactive: viability, T/C (second compound 0.3 µM, first compound 31.6 pM) 105% | viability, T/C (second compound 0.3 µM, first compound 0.0001 µM) 101% | viability, T/C (second compound 0.3 µM, first compound 0.000316 µM) 91.4% | viability, T/C (second compound 0.3 µM, first compound 0.001 µM) 92.8% | viability, T/C (second compound 0.3 µM, first compound 0.00316 µM) 93.9% | viability, T/C (second compound 0.949 µM, first compound 31.6 pM) 80.2% | viability, T/C (second compound 0.949 µM, first compound 0.0001 µM) 85.4% | viability, T/C (second compound 0.949 µM, first compound 0.000316 µM) 78.1% | viability, T/C (second compound 0.949 µM, first compound 0.001 µM) 82.6% | viability, T/C (second compound 0.949 µM, first compound 0.00316 µM) 91.8% | viability, T/C (second compound 3 µM, first compound 31.6 pM) 70% | viability, T/C (second compound 3 µM, first compound 0.0001 µM) 81.6% | viability, T/C (second compound 3 µM, first compound 0.000316 µM) 76.6% | viability, T/C (second compound 3 µM, first compound 0.001 µM) 78.2% | viability, T/C (second compound 3 µM, first compound 0.00316 µM) 81.8% | viability, T/C (second compound 9.49 µM, first compound 31.6 pM) 100% | viability, T/C (second compound 9.49 µM, first compound 0.0001 µM) 110% | viability, T/C (second compound 9.49 µM, first compound 0.000316 µM) 111% | viability, T/C (second compound 9.49 µM, first compound 0.001 µM) 94.3% | viability, T/C (second compound 9.49 µM, first compound 0.00316 µM) 113% | viability, T/C (second compound 30 µM, first compound 31.6 pM) 54.3% | viability, T/C (second compound 30 µM, first compound 0.0001 µM) 64.6% | viability, T/C (second compound 30 µM, first compound 0.000316 µM) 56.2% | viability, T/C (second compound 30 µM, first compound 0.001 µM) 56.7% | viability, T/C (second compound 30 µM, first compound 0.00316 µM) 68.6%
5.25 nM: IC50 (second compound 0.949 µM)
3.86 nM: IC50 (second compound 30 µM)
5.69 nM: IC50 (second compound 0.3 µM)

Cn1cnc2c(F)c(Nc3ccc(Br)cc3Cl)c(C(=O)NOCCO)cc21 + CC(C)NCC(C(=O)N1CCN(c2ncnc3c2C(C)CC3O)CC1)c1ccc(Cl)cc1
inactive: viability, T/C [1] 64.4% | viability, T/C [2] 42.6% | viability, T/C (second compound 0.3 µM, first compound 0.0949 µM) 36.7% | viability, T/C (second compound 0.3 µM, first compound 0.3 µM) 38.3% | viability, T/C (second compound 0.3 µM, first compound 0.949 µM) 27.7% | viability, T/C (second compound 0.3 µM, first compound 3 µM) 20.4% | viability, T/C [3] 48.9% | viability, T/C [4] 38.9% | viability, T/C (second compound 0.949 µM, first compound 0.0949 µM) 28.5% | viability, T/C (second compound 0.949 µM, first compound 0.3 µM) 20.9% | viability, T/C (second compound 0.949 µM, first compound 0.949 µM) 15.8% | viability, T/C [5] 44.8% | viability, T/C [6] 38.5% | viability, T/C (second compound 3 µM, first compound 0.0949 µM) 28.6% | viability, T/C (second compound 3 µM, first compound 0.3 µM) 25% | viability, T/C (second compound 3 µM, first compound 0.949 µM) 14.1% | viability, T/C [7] 61% | viability, T/C [8] 45% | viability, T/C (second compound 9.49 µM, first compound 0.0949 µM) 29% | viability, T/C (second compound 9.49 µM, first compound 0.3 µM) 21.3% | viability, T/C (second compound 9.49 µM, first compound 0.949 µM) 13.5% | viability, T/C [9] 40.2% | viability, T/C [10] 21.9% | viability, T/C (second compound 30 µM, first compound 0.0949 µM) 17.9%
active: viability, T/C (second compound 0.949 µM, first compound 3 µM) 5.06% | viability, T/C (second compound 3 µM, first compound 3 µM) 5.64% | viability, T/C (second compound 9.49 µM, first compound 3 µM) 5.67% | viability, T/C (second compound 30 µM, first compound 0.3 µM) 10% | viability, T/C (second compound 30 µM, first compound 0.949 µM) 3.77% | viability, T/C (second compound 30 µM, first compound 3 µM) 1.5%
20.2 nM: IC50 (second compound 9.49 µM)
25.7 nM: IC50 (second compound 0.3 µM)
< 9.49 nM: IC50 (second compound 0.949 µM) | IC50 (second compound 3 µM) | IC50 (second compound 30 µM)
